Measured values as given in publication PMC3229842 (Chemmedchem, 2011).
Like-named read-outs stand apart in the source and are kept apart here.

Experiments:
[1] = system: T. brucei (S427 single marker line); assay: microbe, parasite or virus in culture; assay type: cell-based, Trypanosoma brucei; conditions: for EC50: Trypanosoma brucei
[2] = system: MRC-5 cell line (normal diploid human fibroblasts); assay: cells; assay type: cell-based; conditions: MRC5, read-out: pEC50 MRC-5 (converted)
T. brucei = conditions: cited from earlier work

O=C(Cc1ccc(Cl)c(Cl)c1)Nc1ccccc1N1CCCC1 [Compound 44, 2-(3,4-Dichlorophenyl)-N-[2-(pyrrolidin-1-yl)phenyl]acetamide]
fold loss of potency relative to 38 [1]: > 66 fold
EC50 ([1]; 72 h, read-out: EC50 T. b. brucei): 17700 nM

N=C(N)c1ccc(OCCCCCOc2ccc(C(=N)N)cc2)cc1 [Pentamidine]
EC50 ([1]; read-out: pEC50 T. brucei (converted)): 3.55 nM

COc1cccc2c1C(=O)c1c(O)c3c(c(O)c1C2=O)C[C@@](O)(C(=O)CO)C[C@@H]3O[C@H]1C[C@H](N)[C@H](O)[C@H](C)O1 [doxorubicin]
EC50 [2]: 70.8 nM

NCCCC(N)(C(=O)O)C(F)F (centres unmarked) [eflornithine]
Hill slope (s) (T. brucei): 4.0
